# In ChEMBL document CHEMBL1201862, “PubChem BioAssay data set” (2004):
#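 Interpolation was linear, between the two tested concentrations surrounding the appropriate level; five concentrations were tested over 48 hours in 96-well plates. Here, GI50 denotes the concentration required for 50% inhibition of growth.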 Calls of active or inactive are those of the source. No stated cut-off is given here; in the data, active = GI50 up to about 1.1 µM and inactive = higher.
# How the values were obtained:
# Test in all cases: NCI tumour cell line growth inhibition, 48 h
# Hs-578T = system: Hs-578T
# HCC 2998 = system: HCC 2998
# NCI-H226 = system: NCI-H226
# A549 = system: A549
# EKVX = system: EKVX
# OVCAR-8 = system: OVCAR-8
# MDA-MB-435 = system: MDA-MB-435
# CAKI-1 = system: CAKI-1
# HCT-116 = system: HCT-116
# K562 = system: K562
# HT-29 = system: HT-29
# MDA-MB-231 = system: MDA-MB-231
# NCI-H23 = system: NCI-H23
# DU-145 = system: DU-145
# KM12 = system: KM12
# IGROV-1 = system: IGROV-1
# HL-60 = system: HL-60
# SK-OV-3 = system: SK-OV-3
# CCRF-CEM = system: CCRF-CEM
Compound,GI50 (Hs-578T),GI50 (HCC 2998),GI50 (NCI-H226),GI50 (A549),GI50 (EKVX),GI50 (OVCAR-8),GI50 (MDA-MB-435),GI50 (CAKI-1),GI50 (HCT-116),GI50 (K562),GI50 (HT-29),GI50 (MDA-MB-231),GI50 (NCI-H23),GI50 (DU-145),GI50 (KM12),GI50 (IGROV-1),GI50 (HL-60),GI50 (SK-OV-3),GI50 (CCRF-CEM)
CC(=O)OC1CCC2(C)C(CCC3C2CC(=O)C2(C)C3CC(N3CC3)C2C(C)=O)C1 (stereo not given),15.1 µM (inactive),15.4 µM (inactive),19.1 µM (inactive),27.4 µM (inactive),18.4 µM (inactive),14 µM (inactive),17.9 µM (inactive),16.1 µM (inactive),20.7 µM (inactive),15.2 µM (inactive),22.6 µM (inactive),16.7 µM (inactive),16.7 µM (inactive),32.6 µM (inactive),17.1 µM (inactive),13.6 µM (inactive),–,–,–
c1ccc(C2(c3cc4ccccc4[nH]3)OCCO2)nc1,> 100 µM (inactive),> 100 µM (inactive),> 100 µM (inactive),> 100 µM (inactive),> 100 µM (inactive),> 100 µM (inactive),> 100 µM (inactive),> 100 µM (inactive),> 100 µM (inactive),–,> 100 µM (inactive),> 100 µM (inactive),> 100 µM (inactive),> 100 µM (inactive),> 100 µM (inactive),> 100 µM (inactive),> 100 µM (inactive),> 100 µM (inactive),> 100 µM (inactive)
CC(=O)Nc1ccc(NNc2cc(=O)n(C)c(=O)[nH]2)cc1,25.6 µM (inactive),11.4 µM (inactive),22.4 µM (inactive),19 µM (inactive),17 µM (inactive),15.9 µM (inactive),10.3 µM (inactive),–,4.33 µM (inactive),33.3 µM (inactive),2.02 µM (inactive),12.1 µM (inactive),14.7 µM (inactive),16 µM (inactive),12 µM (inactive),14 µM (inactive),2.95 µM (inactive),–,> 10 µM (inactive)
COc1cc(C=O)cc(/C=N/n2c3ccccc3c3ccccc32)c1O,6.81 µM (inactive),19.3 µM (inactive),6.3 µM (inactive),> 100 µM (inactive),43.1 µM (inactive),8.09 µM (inactive),4.05 µM (inactive),31.8 µM (inactive),10.9 µM (inactive),12 µM (inactive),35.7 µM (inactive),17.4 µM (inactive),39.6 µM (inactive),> 100 µM (inactive),35.8 µM (inactive),–,5.81 µM (inactive),6.76 µM (inactive),4.09 µM (inactive)
O=C1CN(/N=C/c2ccc(-c3ccc(F)cc3)o2)C(=O)N1,45.5 µM (inactive),80.9 µM (inactive),32.2 µM (inactive),52.2 µM (inactive),> 100 µM (inactive),> 100 µM (inactive),18.5 µM (inactive),58.6 µM (inactive),50.8 µM (inactive),35 µM (inactive),–,> 100 µM (inactive),82.6 µM (inactive),> 100 µM (inactive),33.1 µM (inactive),41.6 µM (inactive),55.6 µM (inactive),> 100 µM (inactive),> 100 µM (inactive)
C=C(C)CNC(=S)N(N)c1ccc2ccccc2c1,> 100 µM (inactive),47.3 µM (inactive),> 100 µM (inactive),> 100 µM (inactive),24.7 µM (inactive),> 100 µM (inactive),72.3 µM (inactive),–,> 100 µM (inactive),40.4 µM (inactive),65.3 µM (inactive),> 100 µM (inactive),> 100 µM (inactive),> 100 µM (inactive),13.6 µM (inactive),11.4 µM (inactive),57.3 µM (inactive),> 100 µM (inactive),95.3 µM (inactive)
C=C(C)C1=CCC[C@]2(C1)N=C(OC)[C@@H](C(C)C)N=C2OC,> 100 µM (inactive),> 100 µM (inactive),> 100 µM (inactive),> 100 µM (inactive),> 100 µM (inactive),> 100 µM (inactive),40.1 µM (inactive),> 100 µM (inactive),> 100 µM (inactive),–,> 100 µM (inactive),> 100 µM (inactive),> 100 µM (inactive),> 100 µM (inactive),> 100 µM (inactive),47.1 µM (inactive),28.3 µM (inactive),> 100 µM (inactive),34.3 µM (inactive)
CCOc1ccc(N/C(Cl)=C(Cl)\C(=C(\Nc2ccc(OCC)cc2)n2nnc3ccccc32)[N+](=O)[O-])cc1,2.58 µM (inactive),13.2 µM (inactive),19.4 µM (inactive),23.3 µM (inactive),12.2 µM (inactive),1.74 µM (inactive),6.95 µM (inactive),1.14 µM (inactive),2.15 µM (inactive),2.36 µM (inactive),1.75 µM (inactive),6.08 µM (inactive),6.38 µM (inactive),14.5 µM (inactive),19.1 µM (inactive),1.79 µM (inactive),–,66.5 µM (inactive),1.3 µM (inactive)
CCN(CC)c1ccc2cc(-c3csc(C)n3)c(=O)oc2c1,25.7 µM (inactive),58.5 µM (inactive),57.4 µM (inactive),> 100 µM (inactive),> 100 µM (inactive),–,42.9 µM (inactive),> 100 µM (inactive),69.8 µM (inactive),> 100 µM (inactive),5.75 µM (inactive),71.8 µM (inactive),–,> 100 µM (inactive),13.5 µM (inactive),45.3 µM (inactive),95.3 µM (inactive),> 100 µM (inactive),> 100 µM (inactive)
CN(C)CCNc1nc2ccccc2c2c1CCCC2,32.7 µM (inactive),12.5 µM (inactive),21.1 µM (inactive),32.6 µM (inactive),37.9 µM (inactive),31.8 µM (inactive),18.2 µM (inactive),16.9 µM (inactive),14.8 µM (inactive),20.3 µM (inactive),22.8 µM (inactive),14.7 µM (inactive),33.3 µM (inactive),33.9 µM (inactive),19.3 µM (inactive),17.2 µM (inactive),14.8 µM (inactive),18.2 µM (inactive),–
COc1cc(/C=C2\N=C(c3ccccc3)N(c3nc4cc(C)c(C)cc4s3)C2=O)ccc1O,30.8 µM (inactive),27 µM (inactive),–,40.7 µM (inactive),23.3 µM (inactive),47.4 µM (inactive),12.6 µM (inactive),36.6 µM (inactive),19.3 µM (inactive),35.3 µM (inactive),31.1 µM (inactive),66.1 µM (inactive),–,61.7 µM (inactive),17.8 µM (inactive),21.4 µM (inactive),18.7 µM (inactive),> 100 µM (inactive),20.5 µM (inactive)
CC(C)N(C(=O)c1ccc(NCc2cc(O)ccc2O)cc1)C(C)C,26.2 µM (inactive),–,17.2 µM (inactive),26.2 µM (inactive),14.7 µM (inactive),14.4 µM (inactive),17.1 µM (inactive),14.2 µM (inactive),15.5 µM (inactive),20.4 µM (inactive),18 µM (inactive),14.3 µM (inactive),17.9 µM (inactive),16.4 µM (inactive),–,17.7 µM (inactive),2.26 µM (inactive),35.3 µM (inactive),3.08 µM (inactive)
Nc1cccc(/C=C/C(=O)N2CCN(CCOC(c3ccccc3)c3ccccc3)CC2)c1,21 µM (inactive),–,20.9 µM (inactive),16.6 µM (inactive),18.7 µM (inactive),17.8 µM (inactive),16.3 µM (inactive),18.6 µM (inactive),15.5 µM (inactive),9.98 µM (inactive),8.2 µM (inactive),15.7 µM (inactive),18.5 µM (inactive),15.1 µM (inactive),17 µM (inactive),18.2 µM (inactive),11.2 µM (inactive),16.5 µM (inactive),10 µM (inactive)
CC(=O)Nc1ccc2c(c1)C(=O)c1cccc(F)c1-2,37.2 µM (inactive),–,35.2 µM (inactive),49.2 µM (inactive),> 100 µM (inactive),58.2 µM (inactive),> 100 µM (inactive),41.1 µM (inactive),24.2 µM (inactive),50.2 µM (inactive),35.2 µM (inactive),30.4 µM (inactive),43.9 µM (inactive),0.113 µM (active),0.401 µM (active),20.1 µM (inactive),> 100 µM (inactive),> 100 µM (inactive),38.6 µM (inactive)
CC(=O)N1c2ccccc2C2=NN(C)C(=N)SC21 (stereo not given),> 100 µM (inactive),> 100 µM (inactive),> 100 µM (inactive),> 100 µM (inactive),> 100 µM (inactive),> 100 µM (inactive),89.3 µM (inactive),–,> 100 µM (inactive),> 100 µM (inactive),> 100 µM (inactive),> 100 µM (inactive),> 100 µM (inactive),> 100 µM (inactive),> 100 µM (inactive),–,89.5 µM (inactive),–,> 100 µM (inactive)
CCNc1nnc(-c2ccccc2Nc2ccccc2-c2nnc(NCC)s2)s1,12.3 µM (inactive),11.6 µM (inactive),20.2 µM (inactive),13.5 µM (inactive),20.9 µM (inactive),13.6 µM (inactive),17.4 µM (inactive),2.85 µM (inactive),9.89 µM (inactive),37.2 µM (inactive),10.9 µM (inactive),8.02 µM (inactive),14 µM (inactive),4.72 µM (inactive),9.46 µM (inactive),6.18 µM (inactive),–,9.06 µM (inactive),4.18 µM (inactive)
